Results reported in patent US20080306056A1, “PYRAZOLE-DERIVATIVES AS FACTOR Xa INHIBITORS” (SANOFI-AVENTIS DEUTSCHLAND GMBH, priority 2002, published 2008).

biological target: T1, human factor Xa (Homo sapiens, UniProt P00742); assay: Factor Xa assay (chromogenic, purified enzyme); assay type: biochemical; details: inhibition constant for factor Xa; chromogenic substrate S-2765 140 μM, enzyme 0.5 nM, 25° C., pH 7.8; Ki=IC50/{1+(substrate concentration/Km)}; read-out: Ki(FXa)
T1 construct: 25 μl human factor Xa (Enzyme Research Laboratories, Inc; South Bend, Ind.); purchased Enzyme Research Laboratories, Inc; South Bend, Ind
Description: The ability of the compound of formulae I, Ib and Ic to inhibit factor Xa or factor VIIa or other enzymes like thrombin, plasmin, or trypsin can be assessed by determining the concentration of the compound of the formulae I, Ib and Ic that inhibits enzyme activity by 50%, i.e. the IC50 value, which was related to the inhibition constant Ki. Purified enzymes were used in chromogenic assays. The concentration of inhibitor that causes a 50% decrease in the rate of substrate hydrolysis was determined by linear regression after plotting the relative rates of hydrolysis (compared to the uninhibited control) versus the log of the concentration of the compound of formulae I, Ib and Ic. For calculating the inhibition constant Ki, the IC50 value was corrected for competition with substrate using the formula wherein Km is the Michaelis-Menten constant (Chen and Prusoff, Biochem.
Ki=IC50/{1+(substrate concentration/Km)}
Pharmacol. 22 (1973) 3099-3108; I. H. Segal, Enzyme Kinetics, 1975, John Wiley & Sons, New York, 100-125; which were incorporated herein by reference).
The IC50 was determined by combining in appropriate wells of a Costar half-area microtiter plate 25 μl human factor Xa (Enzyme Research Laboratories, Inc.; South Bend, Ind.) in TBS-PEG; 40 μl 10% (v/v) DMSO in TBS-PEG (uninhibited control) or various concentrations of the compound to be tested diluted in 10% (v/v) DMSO in TBS-PEG; and substrate S-2765 (N(α)-benzyloxycarbonyl-D-Arg-Gly-L-Arg-p-nitroanilide; Kabi Pharmacia, Inc.; Franklin, Ohio) in TBS-PEG.
The assay was performed by pre-incubating the compound of formulae I, Ib and Ic plus enzyme for 10 min. Then the assay was initiated by adding substrate to obtain a final volume of 100 μl. The initial velocity of chromogenic substrate hydrolysis was measured by the change in absorbance at 405 nm using a Bio-tek Instruments kinetic plate reader (Ceres UV900HDi) at 25° C. during the linear portion of the time course (usually 1.5 min after addition of substrate). The enzyme concentration was 0.5 nM and substrate concentration was 140 μM.
The inhibitory activity towards factor VIIa/tissue factor activity was determined using a chromogenic assay essentially as described previously (J. A. Ostrem et al., Biochemistry 37 (1998) 1053-1059 which was incorporated herein by reference). Kinetic assays were conducted at 25° C. in half-area microtiter plates (Costar Corp., Cambridge, Mass.) using a kinetic plate reader (Molecular Devices Spectramax 250). A typical assay consisted of 25 μl human factor VIIa and TF (5 nM and 10 nM, respective final concentration) combined with 40 μl of inhibitor dilutions in 10% DMSO/TBS-PEG buffer (50 mM Tris, 15 mM NaCl, 5 mM CaCl2, 0.05% PEG 8000, pH 8.15). Following a 15 minute preincubation period, the assay was initiated by the addition of 35 μl of the chromogenic substrate S-2288 (D-Ile-Pro-Arg-p-nitroanilide, Pharmacia Hepar Inc., 500 μM final concentration).

T1 sequence (P00742 235-488 limits assumed): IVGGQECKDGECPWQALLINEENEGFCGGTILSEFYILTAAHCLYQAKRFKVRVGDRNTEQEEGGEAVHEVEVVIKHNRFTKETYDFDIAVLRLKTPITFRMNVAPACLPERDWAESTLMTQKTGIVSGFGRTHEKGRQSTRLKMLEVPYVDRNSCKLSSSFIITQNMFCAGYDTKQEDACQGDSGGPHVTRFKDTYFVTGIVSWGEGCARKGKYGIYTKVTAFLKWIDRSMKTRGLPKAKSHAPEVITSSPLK
T1 sequence (P00742 41-179 partner limits assumed): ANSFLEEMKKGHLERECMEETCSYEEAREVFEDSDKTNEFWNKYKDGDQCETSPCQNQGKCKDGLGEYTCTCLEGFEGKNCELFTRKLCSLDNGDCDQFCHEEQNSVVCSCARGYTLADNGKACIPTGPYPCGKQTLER

Ki [nM] | Structure (SMILES)
30 | CC(C)N1CCC(NC(=O)c2cc(-c3cccs3)nn2Cc2cc(-c3ccc(Cl)s3)on2)CC1 [Example 1, 2-[5-(5-Chloro-thiophen-2-yl)-isoxazol-3-ylmethyl]-5-thiophen-2-yl-2H-pyrazole-3-carboxylic acid (1-isopropyl-piperidin-4-yl)-amide]
32 | CC(C)N1CCC(NC(=O)c2cc(-c3cccs3)n(Cc3cc(-c4ccc(Cl)s4)on3)n2)CC1 [Example 2, 1-[5-(5-Chloro-thiophen-2-yl)-isoxazol-3-ylmethyl]-5-thiophen-2-yl-1H-pyrazole-3-carboxylic acid (1-isopropyl-piperidin-4-yl)-amide]
112 | Cc1cc(C(=O)NC2CCN(C(C)C)CC2)n(Cc2cc(-c3ccc(Cl)s3)on2)n1 [Example 3, 2-[5-(5-Chloro-thiophen-2-yl)-isoxazol-3-ylmethyl]-5-methyl-2H-pyrazole-3-carboxylic acid (1-isopropyl-piperidin-4-yl)-amide]
300 | CC(C)N1CCC(NC(=O)c2cc(-c3ccc(Cl)s3)nn2Cc2cc(-c3ccc(Cl)s3)on2)CC1 [Example 5, 5-(5-Chloro-thiophen-2-yl)-2-[5-(5-chloro-thiophen-2-yl)-isoxazol-3-ylmethyl]-2H-pyrazole-3-carboxylic acid (1-isopropyl-piperidin-4-yl)-amide]
491 | CC(C)N1CCC(NC(=O)c2cc(-c3ccc(Cl)s3)n(Cc3cc(-c4ccc(Cl)s4)on3)n2)CC1 [Example 6, 5-(5-Chloro-thiophen-2-yl)-1-[5-(5-chloro-thiophen-2-yl)-isoxazol-3-ylmethyl]-1H-pyrazole-3-carboxylic acid (1-isopropyl-piperidin-4-yl)-amide]
293 | CC(C)N1CCC(NC(=O)c2c(-c3ccc(Cl)cc3Cl)cnn2Cc2cc(-c3ccc(Cl)s3)on2)CC1 [Example 7, 2-[5-(5-Chloro-thiophen-2-yl)-isoxazol-3-ylmethyl]-4-(2,4-dichloro-phenyl)-2H-pyrazole-3-carboxylic acid (1-isopropyl-piperidin-4-yl)-amide]
332 | CC(C)N1CCC(NC(=O)c2cc(C(C)(C)C)nn2Cc2cc(-c3ccc(Cl)s3)on2)CC1 [Example 9, 5-tert-Butyl-2-[5-(5-chloro-thiophen-2-yl)-isoxazol-3-ylmethyl]-2H-pyrazole-3-carboxylic acid (1-isopropyl-piperidin-4-yl)-amide]
41 | CCCc1nn(Cc2cc(-c3ccc(Cl)s3)on2)c(C(=O)NC2CCN(C(C)C)CC2)c1C#N [Example 10, 2-[5-(5-Chloro-thiophen-2-yl)-isoxazol-3-ylmethyl]-4-cyano-5-propyl-2H-pyrazole-3-carboxylic acid (1-isopropyl-piperidin-4-yl)-amide]
83 | CCCc1c(C#N)c(C(=O)NC2CCN(C(C)C)CC2)nn1Cc1cc(-c2ccc(Cl)s2)on1 [Example 11, 1-[5-(5-Chloro-thiophen-2-yl)-isoxazol-3-ylmethyl]-4-cyano-5-propyl-1H-pyrazole-3-carboxylic acid (1-isopropyl-piperidin-4-yl)-amide]
14 | CC(C)N1CCC(NC(=O)c2c(C#N)c(-c3cccs3)nn2Cc2cc(-c3ccc(Cl)s3)on2)CC1 [Example 12, 2-[5-(5-Chloro-thiophen-2-yl)-isoxazol-3-ylmethyl]-4-cyano-5-thiophen-2-yl-2H-pyrazole-3-carboxylic acid (1-isopropyl-piperidin-4-yl)-amide]
39 | CC(C)N1CCC(NC(=O)c2nn(Cc3cc(-c4ccc(Cl)s4)on3)c(-c3cccs3)c2C#N)CC1 [Example 13, 1-[5-(5-Chloro-thiophen-2-yl)-isoxazol-3-ylmethyl]-4-cyano-5-thiophen-2-yl-1H-pyrazole-3-carboxylic acid (1-isopropyl-piperidin-4-yl)-amide]
46 | CC(C)N1CCC(NC(=O)c2cc(-c3cccs3)nn2Cc2csc(-c3ccc(Cl)s3)n2)CC1 [Example 14, 2-[2-(5-Chloro-thiophen-2-yl)-thiazol-4-ylmethyl]-5-thiophen-2-yl-2H-pyrazole-3-carboxylic acid (1-isopropyl-piperidin-4-yl)-amide]
13 | CC(C)N1CCC(NC(=O)c2cc(-c3cccs3)nn2Cc2cc3ccc(Cl)cc3s2)CC1 [Example 15, 2-(6-Chloro-benzo[b]thiophen-2-ylmethyl)-5-thiophen-2-yl-2H-pyrazole-3-carboxylic acid (1-isopropyl-piperidin-4-yl)-amide]
165 | O=C(NCC1CCN(c2ccncc2)CC1)c1cc(-c2cccs2)nn1Cc1cc(-c2ccc(Cl)s2)on1 [Example 16, 2-[5-(5-Chloro-thiophen-2-yl)-isoxazol-3-ylmethyl]-5-thiophen-2-yl-2H-pyrazole-3-carboxylic acid (3,4,5,6-tetrahydro-2H-[1,4′]bipyridinyl-4-ylmethyl)-amide]
155 | CC(C)N1CCC(CNC(=O)c2cc(-c3cccs3)nn2Cc2cc(-c3ccc(Cl)s3)on2)CC1 [Example 17, 2-[5-(5-Chloro-thiophen-2-yl)-isoxazol-3-ylmethyl]-5-thiophen-2-yl-2H-pyrazole-3-carboxylic acid (1-isopropyl-piperidin-4-ylmethyl)-amide]
205 | O=C(NC1CCN(c2ccncc2)CC1)c1cc(-c2cccs2)nn1Cc1cc(-c2ccc(Cl)s2)on1 [Example 18, 2-[5-(5-Chloro-thiophen-2-yl)-isoxazol-3-ylmethyl]-5-thiophen-2-yl-2H-pyrazole-3-carboxylic acid (3,4,5,6-tetrahydro-2H-[1,4′]bipyridinyl-4-yl)-amide]
274 | CC(C)N1CCC(NC(=O)c2c(C#N)c(-c3cccs3)nn2Cc2ccc(Cl)cc2)CC1 [Example 19, 2-(4-Chloro-benzyl)-4-cyano-5-thiophen-2-yl-2H-pyrazole-3-carboxylic acid (1-isopropyl-piperidin-4-yl)-amide]
73 | COC(=O)c1cc(C(=O)NC2CCN(C(C)C)CC2)n(Cc2cc(-c3ccc(Cl)s3)on2)n1 [Example 20, 1-[5-(5-Chloro-thiophen-2-yl)-isoxazol-3-ylmethyl]-5-(1-isopropyl-piperidin-4-ylcarbamoyl)-1H-pyrazole-3-carboxylic acid methyl ester]
214 | CC(C)N1CCC(NC(=O)c2cc(C(=O)O)nn2Cc2cc(-c3ccc(Cl)s3)on2)CC1 [Example 21, 1-[5-(5-Chloro-thiophen-2-yl)-isoxazol-3-ylmethyl]-5-(1-isopropyl-piperidin-4-ylcarbamoyl)-1H-pyrazole-3-carboxylic acid]
144 | CCOC(=O)c1cc(C(=O)NC2CCN(C(C)C)CC2)n(Cc2cc(-c3ccc(Cl)s3)on2)n1 [Example 23, 1-[5-(5-Chloro-thiophen-2-yl)-isoxazol-3-ylmethyl]-5-(1-isopropyl-piperidin-4-ylcarbamoyl)-1H-pyrazole-3-carboxylic acid ethyl ester]
95 | CC(C)N1CCC(NC(=O)c2cc(C(=O)N3CCOCC3)nn2Cc2cc(-c3ccc(Cl)s3)on2)CC1 [Example 25, 2-[5-(5-Chloro-thiophen-2-yl)-isoxazol-3-ylmethyl]-5-(morpholine-4-carbonyl)-2H-pyrazole-3-carboxylic acid (1-isopropyl-piperidin-4-yl)-amide]

Structure (SMILES) | Ki [nM]
CCCc1cc(C(=O)NC2CCN(C(C)C)CC2)n(Cc2cc(-c3ccc(Cl)s3)on2)n1 [Example 8, 2-[5-(5-Chloro-thiophen-2-yl)-isoxazol-3-ylmethyl]-5-propyl-2H-pyrazole-3-carboxylic acid (1-isopropyl-piperidin-4-yl)-amide] | 54
CNC(=O)c1cc(C(=O)NC2CCN(C(C)C)CC2)n(Cc2cc(-c3ccc(Cl)s3)on2)n1 [Example 26, 1-[5-(5-Chloro-thiophen-2-yl)-isoxazol-3-ylmethyl]-1H-pyrazole-3,5-dicarboxylic acid 5-[(1-isopropyl-piperidin-4-yl)-amide] 3-methylamide] | 68
